Source: US20180320177A1, “COMPOSITIONS AND METHODS FOR THE TREATMENT OF LIVER FIBROSIS” (UNIVERSITY OF CONNECTICUT, priority 2015, published 2018)
Entries after “also recorded” stand apart in the source; their conditions may differ.

What was measured:
[1] = system: CCl4-induced liver fibrosis; test: CCl4-induced liver fibrosis model in mice (Masson Trichrome, ALT, gross morphology); assay type: in vivo, mouse
Protocol: Animal Care: All animal care and experimental procedures were approved by the Institutional Animal Care and Use Committee at the University of Connecticut. Shp^−/− mice were described previously. Hmgb2^−/− mice were obtained from Dr. Stella Tsirka at Stony Brook University. C57BL/6J mice were purchased from Jackson Laboratory. All mice were maintained on a 12-h light/dark cycle with free access to food and water unless otherwise indicated. For CCl4 treatment, CCl4 (Sigma) was dissolved in corn oil and administered to mice at a dose of 850 μl/kg BW by intraperitoneal injection (IP) twice a week for 6 or 10 weeks with or without ICM. Age-matched control mice were treated with a corn oil vehicle. For CCl4+ICM treatment, mice were treated with CCl4 for 2 weeks and then ICM (Department of Pharmaceutical Sciences at UConn) was dissolved in PEG (Sigma) and treated with mice (10 mg/kg) every day for 4 or 8 weeks in combination with CCl4. To induce overexpression of HMGB2 in liver, AAV8-Hmgb2 or a control AAV8-GFP was given to mice by tail vein injection at a dose of 5×10^10 GC. To knockdown HMGB2 in mouse livers, AAV-shHmgb2 or a control AAV-shGFP was delivered to mice at a dose of 2×10^10 GC by tail vein injection. One week later, mice injected with AAVs were treated with CCl4 or CCl4 +ICM as described above and sacrificed. Livers were removed and snap-frozen in liquid nitrogen for RNA and protein analysis. For the collection of mouse fetal livers, pregnant female mice were sacrificed at E12.5, E15, and E18.5 and livers were removed from the embryos. Additionally, post-natal mouse livers were harvested at postnatal day P1 and P60.
Histology: Livers were fixed in 10% neutral buffered formalin and embedded in paraffin. Liver blocks were cut at 5 μm and the sections were stained with hematoxylin and eosin (H&E) and Masson's trichrome according to standard procedures.
ALT and AST: Alanine transaminase (ALT) and Aspartate aminotransferase (AST) were measured by Infinity ALT (GPT) Liquid Stable Reagent and AST (GOT) Liquid Stable Reagent according to the manufacturer's instructions (Thermo Scientific).
For CCl4 treatment, CCl4 (Sigma) was dissolved in corn oil and administered to mice at a dose of 850 µl/kg BW by intraperitoneal injection (IP) twice a week for 6 or 10 weeks with or without ICM. Age-matched control mice were treated with a corn oil vehicle. For CCl4+ICM treatment, mice were treated with CCl4 for 2 weeks and then ICM (Department of Pharmaceutical Sciences at UConn) was dissolved in PEG (Sigma) and treated with mice (10 mg/kg) every day for 4 or 8 weeks in combination with CCl4. To induced overexpression of HMGB2 in liver, AAV8-Hmgb2 or a control AAV8-GFP was given to mice by tail vein injection at a dose of 5×10^10 GC. […]

TIC cells = test: TIC cell proliferation (micrograph); assay type: cell-based; conditions: 5 μM ICM versus DMSO (FIG. 14E)
Protocol: Cell culture, Cell transfection:HEK293T, Hela, Hep3B and MHCC97H cells were cultured and transfected using X-tremeGENE™ HP DNA transfection reagent (Roche) as described previously. CGR8 ES cells were cultured on 0.1% gelatin coated tissue-culture dish in knockout DMEM medium containing 15% ES qualified-Fetal Bovine Serum, 2 mM L-glutamin, 0.1 mM NEAA, 0.1 mM β-mercaptoethanol, 50 μg/ml penicillin-streptomycin and 10 ng/ml Leukemia inhibitory factor (LIF). TIC cells were cultured in DMEM-F12 medium containing Embryomax nucleotides, 2 mM L-glutamin, 0.1 mM NEAA, 20 ng/ml mouse EGF, 50 μg/ml penicillin-streptomycin and […].
FIG. 14A is Left, Western blot of HMGB2 and SOX2 protein in HEK293T cells transfected with 0.5 μg […] expression plasmid and 0, 1 or 2 μg Flag-HMGB2 expression plasmid. Right, Western blot of HMGB2 and OCT4 protein in HEK293T cells transfected with 0.5 μg HA-OCT4 expression plasmid and 0, 1 or 2 μg Flag-HMGB2 expression plasmid. […] CGR8 cells were lysed, co-immunoprecipitated with OCT4 antibody, followed by Western blot with HMGB2 or OCT4 antibodies. FIG. 14 C is a luciferase reporter assay. HepG2 cells were infected with AAV8-GFP or AAV8-HMGB2 24 hrs before being transfected with 6*OS luciferase reporter and OCT4, SOX2 expression plasmids alone or in combination.

SMILES: CC1(C)Oc2cc(O)ccc2C2C1=CCn1c(=O)n(-c3ccccc3)c(=O)n12 (centres unmarked) [ICM, inflachromene]
- liver gross morphology ([1]; ICM 10 mg/kg i.p. daily for 4 wks (FIG. 16B)): improved liver gross morphology
- plasma ALT levels ([1]; ICM 10 mg/kg i.p. daily for 4 wks (FIG. 16C)): decreased plasma ALT levels
- serum ALT ([1]; ICM (FIG. 5B)): decreases
- liver fibrosis ([1]; ICM in PEG 10 mg/kg i.p. daily for 4 wks, Masson Trichrome staining): decreases; also recorded: diminished liver fibrosis
- TIC cell proliferation (TIC cells): decreases TIC cell proliferation
